From PubChem BioAssay (NCI)
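Here, GI50 denotes the concentration required for 50% inhibition of growth. TGI denotes the concentration required for complete inhibition of growth.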

Assays:
Assay in all cases: growth of human tumour cells (NCI), 384-well format
IGROV1 ovarian = test system: IGROV1 ovarian
SNB-19 CNS = test system: SNB-19 CNS
NCI-H522 lung = test system: NCI-H522 lung
SK-MEL-28 melanoma = test system: SK-MEL-28 melanoma
HT29 colon = test system: HT29 colon
A549 NSCLC = test system: A549 NSCLC
HCC-2998 colon = test system: HCC-2998 colon
MOLT-4 leukemia = test system: MOLT-4 leukemia
HS 578T breast = test system: HS 578T breast
T-47D breast = test system: T-47D breast
RPMI-8226 leukemia = test system: RPMI-8226 leukemia
SNB-75 CNS = test system: SNB-75 CNS
NCI-H460 NSCLC = test system: NCI-H460 NSCLC
SK-OV-3 ovarian = test system: SK-OV-3 ovarian
MDA-MB-468 breast = test system: MDA-MB-468 breast
K-562 leukemia = test system: K-562 leukemia
TK-10 renal = test system: TK-10 renal
M14 melanoma = test system: M14 melanoma
HOP-62 NSCLC = test system: HOP-62 NSCLC
SW-620 colon = test system: SW-620 colon
HCT-116 colon = test system: HCT-116 colon
RXF 393 renal = test system: RXF 393 renal
CAKI-1 renal = test system: CAKI-1 renal
U251 glioblastoma = test system: U251 glioblastoma
OVCAR-4 ovarian = test system: OVCAR-4 ovarian
HOP-92 NSCLC = test system: HOP-92 NSCLC
MALME-3M melanoma = test system: MALME-3M melanoma
UO-31 renal = test system: UO-31 renal
SF-268 CNS = test system: SF-268 CNS
NCI-H226 lung = test system: NCI-H226 lung

With CC[C@H](Nc1ncnc2nc[nH]c12)c1oc2ccccc2c(=O)c1-c1cccc(F)c1 the GI50 (IGROV1 ovarian) was 24.1 µM, the TGI (IGROV1 ovarian) was 59.2 µM and the GI50 (SNB-19 CNS) was 37.1 µM. The TGI (SNB-19 CNS) was > 100 µM, the GI50 (NCI-H522 lung) was 20.6 µM and the TGI (NCI-H522 lung) was 47.7 µM. For the same compound, the GI50 (SK-MEL-28 melanoma) was 27.7 µM, the TGI (SK-MEL-28 melanoma) was > 86.1 µM and the GI50 (HT29 colon) was 32.3 µM. For the same compound, the TGI (HT29 colon) was > 100 µM, the GI50 (A549 NSCLC) was 27.9 µM and the TGI (A549 NSCLC) was > 100 µM. The GI50 (HCC-2998 colon) was 32.6 µM, the TGI (HCC-2998 colon) was 80 µM and the GI50 (MOLT-4 leukemia) was 15.8 µM. The TGI (MOLT-4 leukemia) was 29.6 µM, the GI50 (HS 578T breast) was 15.1 µM and the TGI (HS 578T breast) was 37.2 µM. For the same compound, the GI50 (T-47D breast) was 24.4 µM, the TGI (T-47D breast) was > 86.2 µM and the GI50 (RPMI-8226 leukemia) was 8.38 µM. The TGI (RPMI-8226 leukemia) was 20.5 µM, the GI50 (SNB-75 CNS) was 23.2 µM and the TGI (SNB-75 CNS) was 60.7 µM. For the same compound, the GI50 (NCI-H460 NSCLC) was 34.7 µM, the TGI (NCI-H460 NSCLC) was > 100 µM and the GI50 (SK-OV-3 ovarian) was 24.5 µM. For the same compound, the TGI (SK-OV-3 ovarian) was 63.8 µM, the GI50 (MDA-MB-468 breast) was 9.6 µM and the TGI (MDA-MB-468 breast) was 27.2 µM. The GI50 (K-562 leukemia) was 26.5 µM, the TGI (K-562 leukemia) was > 96.6 µM and the GI50 (TK-10 renal) was 29.8 µM. For the same compound, the TGI (TK-10 renal) was > 95.2 µM, the GI50 (M14 melanoma) was 37.7 µM and the TGI (M14 melanoma) was > 100 µM. The GI50 (HOP-62 NSCLC) was 30.1 µM, the TGI (HOP-62 NSCLC) was > 100 µM and the GI50 (SW-620 colon) was 48.7 µM. The TGI (SW-620 colon) was > 81.2 µM, the GI50 (HCT-116 colon) was 36.9 µM and the TGI (HCT-116 colon) was > 100 µM. The GI50 (RXF 393 renal) was 21.1 µM, the TGI (RXF 393 renal) was > 69.5 µM and the GI50 (CAKI-1 renal) was 28.6 µM. For the same compound, the TGI (CAKI-1 renal) was > 100 µM, the GI50 (U251 glioblastoma) was 31 µM and the TGI (U251 glioblastoma) was > 100 µM. For the same compound, the GI50 (OVCAR-4 ovarian) was 17.9 µM, the TGI (OVCAR-4 ovarian) was 54.2 µM and the GI50 (HOP-92 NSCLC) was 14.6 µM. For the same compound, the TGI (HOP-92 NSCLC) was 39.1 µM, the GI50 (MALME-3M melanoma) was 23.6 µM and the TGI (MALME-3M melanoma) was 62.8 µM. For the same compound, the GI50 (UO-31 renal) was 3.16 µM, the TGI (UO-31 renal) was > 100 µM and the GI50 (SF-268 CNS) was 29.8 µM. For the same compound, the TGI (SF-268 CNS) was > 89.4 µM, the GI50 (NCI-H226 lung) was 23.8 µM and the TGI (NCI-H226 lung) was 83 µM.
